Measured values reported in PubChem BioAssay AID2060882 (Molecular Pharmacology Branch, DTP, NCI, 2025).

Test system: 898857-211-R-J1-PDC complex spheroids, growth % test/control
Assay: Anticancer human tumor 898857-211-R-J1-PDC patient-derived melanoma cell line growth inhibition [RAS]
Conditions: for IC50: curve of first compound; for viability, T/C: stronger effect = lower value
Method in brief: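 Multi-cell-type spheroids: tumor cells plus HUVEC endothelial cells and mesenchymal stem cells. RAS-pathway inhibitors were combined with targeted agents, each dosed in half-log steps down from clinical Cmax, or from 10 microM when Cmax was unknown.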
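Also: spheroids exposed to compound for seven days before readout.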
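For viability, T/C in this document: 100% = DMSO vehicle control wells.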

Compound `CC(=O)OC12COC1CC(O)C1(C)C(=O)C(O)C3=C(C)C(OC(=O)C(O)C(NC(=O)OC(C)(C)C)c4ccccc4)CC(O)(C(OC(=O)c4ccccc4)C21)C3(C)C` (centres undefined) + C=CC(=O)N1CCN(c2nc(OCC3CCCN3C)nc3c(F)c(-c4nc(N)cc(C)c4C(F)(F)F)c(Cl)cc23)C(C)C1 has an IC50 (second compound 0.00316 µM) of less than 31.6 nM, an IC50 (second compound 0.01 µM) of less than 31.6 nM and an IC50 (second compound 0.0316 µM) of less than 31.6 nM. For the same compound, the IC50 (second compound 0.1 µM) was less than 31.6 nM, the IC50 (second compound 0.316 µM) was less than 31.6 nM and the IC50 (second compound 1 µM) was less than 31.6 nM. It also gave a viability, T/C (second compound 0.00316 µM, first compound 0.0316 µM) of 12.3%, a viability, T/C (second compound 0.00316 µM, first compound 0.1 µM) of 15.6% and a viability, T/C (second compound 0.00316 µM, first compound 0.316 µM) of 14.2%. For the same compound, the viability, T/C (second compound 0.00316 µM, first compound 1 µM) was 15.5%, the viability, T/C (second compound 0.00316 µM, first compound 3.16 µM) was 21.2% and the viability, T/C (second compound 0.00316 µM, first compound 10 µM) was 20.4%. For the same compound, the viability, T/C (second compound 0.01 µM, first compound 0.0316 µM) was 12%, the viability, T/C (second compound 0.01 µM, first compound 0.1 µM) was 13.7% and the viability, T/C (second compound 0.01 µM, first compound 0.316 µM) was 10.5%. The viability, T/C (second compound 0.01 µM, first compound 1 µM) was 14.5%, the viability, T/C (second compound 0.01 µM, first compound 3.16 µM) was 21.1% and the viability, T/C (second compound 0.01 µM, first compound 10 µM) was 19.6%. For the same compound, the viability, T/C (second compound 0.0316 µM, first compound 0.0316 µM) was 13.1%, the viability, T/C (second compound 0.0316 µM, first compound 0.1 µM) was 13.1% and the viability, T/C (second compound 0.0316 µM, first compound 0.316 µM) was 14.3%. It also gave a viability, T/C (second compound 0.0316 µM, first compound 1 µM) of 14.8%, a viability, T/C (second compound 0.0316 µM, first compound 3.16 µM) of 24.2% and a viability, T/C (second compound 0.0316 µM, first compound 10 µM) of 20%. For the same compound, the viability, T/C (second compound 0.1 µM, first compound 0.0316 µM) was 11.5%, the viability, T/C (second compound 0.1 µM, first compound 0.1 µM) was 15.1% and the viability, T/C (second compound 0.1 µM, first compound 0.316 µM) was 14.3%. For the same compound, the viability, T/C (second compound 0.1 µM, first compound 1 µM) was 16.5%, the viability, T/C (second compound 0.1 µM, first compound 3.16 µM) was 16.2% and the viability, T/C (second compound 0.1 µM, first compound 10 µM) was 19.9%. For the same compound, the viability, T/C (second compound 0.316 µM, first compound 0.0316 µM) was 12.8%, the viability, T/C (second compound 0.316 µM, first compound 0.1 µM) was 15.5% and the viability, T/C (second compound 0.316 µM, first compound 0.316 µM) was 14.2%. The viability, T/C (second compound 0.316 µM, first compound 1 µM) was 16.9%, the viability, T/C (second compound 0.316 µM, first compound 3.16 µM) was 14.7% and the viability, T/C (second compound 0.316 µM, first compound 10 µM) was 21.1%. The viability, T/C (second compound 1 µM, first compound 0.0316 µM) was 12%, the viability, T/C (second compound 1 µM, first compound 0.1 µM) was 13.3% and the viability, T/C (second compound 1 µM, first compound 0.316 µM) was 12.1%. The viability, T/C (second compound 1 µM, first compound 1 µM) was 15.4%, the viability, T/C (second compound 1 µM, first compound 3.16 µM) was 19.4% and the viability, T/C (second compound 1 µM, first compound 10 µM) was 15.2%.
In the case of `CCc1c2c(nc3ccc(O)cc13)-c1cc3c(c(=O)n1C2)COC(=O)[C@]3(O)CC` + C=CC(=O)N1CCN(c2nc(OCC3CCCN3C)nc3c(F)c(-c4nc(N)cc(C)c4C(F)(F)F)c(Cl)cc23)C(C)C1, the IC50 (second compound 0.00316 µM) is reported as 4.67 nM, the IC50 (second compound 0.01 µM) is reported as 4.95 nM and the IC50 (second compound 0.0316 µM) is reported as 5.08 nM. For the same compound, the IC50 (second compound 0.1 µM) was 4.95 nM, the IC50 (second compound 0.316 µM) was 5.43 nM and the IC50 (second compound 1 µM) was 5.56 nM. The viability, T/C (second compound 0.00316 µM, first compound 0.000949 µM) was 95.2%, the viability, T/C (second compound 0.00316 µM, first compound 0.003 µM) was 64.1% and the viability, T/C (second compound 0.00316 µM, first compound 0.00949 µM) was 27.9%. For the same compound, the viability, T/C (second compound 0.00316 µM, first compound 0.03 µM) was 8.98%, the viability, T/C (second compound 0.00316 µM, first compound 0.0949 µM) was 7.24% and the viability, T/C (second compound 0.00316 µM, first compound 0.3 µM) was 8.79%. For the same compound, the viability, T/C (second compound 0.01 µM, first compound 0.000949 µM) was 89.6%, the viability, T/C (second compound 0.01 µM, first compound 0.003 µM) was 67.4% and the viability, T/C (second compound 0.01 µM, first compound 0.00949 µM) was 27.5%. The viability, T/C (second compound 0.01 µM, first compound 0.03 µM) was 10.1%, the viability, T/C (second compound 0.01 µM, first compound 0.0949 µM) was 7.97% and the viability, T/C (second compound 0.01 µM, first compound 0.3 µM) was 8.39%. The viability, T/C (second compound 0.0316 µM, first compound 0.000949 µM) was 87.3%, the viability, T/C (second compound 0.0316 µM, first compound 0.003 µM) was 69.2% and the viability, T/C (second compound 0.0316 µM, first compound 0.00949 µM) was 27.4%. The viability, T/C (second compound 0.0316 µM, first compound 0.03 µM) was 8.88%, the viability, T/C (second compound 0.0316 µM, first compound 0.0949 µM) was 8.21% and the viability, T/C (second compound 0.0316 µM, first compound 0.3 µM) was 8.99%. It also gave a viability, T/C (second compound 0.1 µM, first compound 0.000949 µM) of 93%, a viability, T/C (second compound 0.1 µM, first compound 0.003 µM) of 68.7% and a viability, T/C (second compound 0.1 µM, first compound 0.00949 µM) of 26%. It also gave a viability, T/C (second compound 0.1 µM, first compound 0.03 µM) of 8.12%, a viability, T/C (second compound 0.1 µM, first compound 0.0949 µM) of 7.6% and a viability, T/C (second compound 0.1 µM, first compound 0.3 µM) of 8.98%. It also gave a viability, T/C (second compound 0.316 µM, first compound 0.000949 µM) of 98.4%, a viability, T/C (second compound 0.316 µM, first compound 0.003 µM) of 73.3% and a viability, T/C (second compound 0.316 µM, first compound 0.00949 µM) of 28.4%. For the same compound, the viability, T/C (second compound 0.316 µM, first compound 0.03 µM) was 9.68%, the viability, T/C (second compound 0.316 µM, first compound 0.0949 µM) was 9.81% and the viability, T/C (second compound 0.316 µM, first compound 0.3 µM) was 8.65%. The viability, T/C (second compound 1 µM, first compound 0.000949 µM) was 98%, the viability, T/C (second compound 1 µM, first compound 0.003 µM) was 75.5% and the viability, T/C (second compound 1 µM, first compound 0.00949 µM) was 27.8%. For the same compound, the viability, T/C (second compound 1 µM, first compound 0.03 µM) was 11.4%, the viability, T/C (second compound 1 µM, first compound 0.0949 µM) was 8.78% and the viability, T/C (second compound 1 µM, first compound 0.3 µM) was 8.26%.
